For this assay, the system named is Influenza A/WSN/33-Luciferase virus. Nature of the assay: microbe, parasite or virus in culture. The note with it: A549, 72 h, luciferase signal three days later, read-out: IC50 antiviral activity (Luciferase reporter assay). The format is cell-based. Background: Reporter assays use an easily measured gene product as a stand-in for the process of interest.

This note sets out measurements from patent US10597380B2, “Pyridazinone-based broad spectrum anti-influenza inhibitors” (Hoffmann-La Roche Inc., priority 2017, dated 2020).

A word on the IC50: it is the concentration that gives 50% inhibition.

As to `O=C(O)C1COCCN1CCn1cccc(Nc2nn(-c3ccc(OC(F)(F)F)cc3)c(=O)c3c2CCC3)c1=O` (stereo not shown) [Example 123, 4-[2-[2-oxo-3-[[4-oxo-3-[4-(trifluoromethoxy)phenyl]-6,7-dihydro-5H-cyclopenta[d]pyridazin-1-yl]amino]-1-pyridyl]ethyl]morpholine-3-carboxylic acid], the IC50 amounted to 485 nM.
The result for `O=C(O)CCCn1cncc(Nc2nn(-c3ccc(OC(F)(F)F)cc3)c(=O)c3c2CCC3)c1=O` [Example 124, 4-[6-oxo-5-[[4-oxo-3-[4-(trifluoromethoxy)phenyl]-6,7-dihydro-5H-cyclopenta[d]pyridazin-1-yl]amino]pyrimidin-1-yl]butanoic acid] reads 4930 nM; that for `Cn1cccc(Nc2nn(-c3ccc(OC(F)(F)F)cc3)c(=O)c3cc(O)ccc23)c1=O` [Example 125, 7-Hydroxy-4-[(1-methyl-2-oxo-3-pyridyl)amino]-2-[4-(trifluoromethoxy)phenyl]phthalazin-1-one], 88 nM; that for `Cn1cccc(Nc2nn(-c3ccc(OC(F)(F)F)cc3)c(=O)c3ccc(O)cc23)c1=O` [Example 126, 6-Hydroxy-4-[(1-methyl-2-oxo-3-pyridyl)amino]-2-[4-(trifluoromethoxy)phenyl]phthalazin-1-one], 191 nM.
As to `O=c1c(Nc2nn(-c3ccc(OC(F)(F)F)cc3)c(=O)c3c2CCC3)cccn1CC1COCCN1` (stereo not shown) [Example 127, 1-[[1-(morpholin-3-ylmethyl)-2-oxo-3-pyridyl]amino]-3-[4-(trifluoromethoxy)phenyl]-6,7-dihydro-5H-cyclopenta[d]pyridazin-4-one], the IC50 is 33 nM.
On to `CNCCn1cncc(Nc2nn(-c3ccc(OC(F)(F)F)cc3)c(=O)c3c2CCC3)c1=O` [Example 128, 1-[[1-[2-(Methylamino)ethyl]-6-oxo-pyrimidin-5-yl]amino]-3-[4-(trifluoromethoxy)phenyl]-6,7-dihydro-5H-cyclopenta[d]pyridazin-4-one], for which the IC50 was determined as 92 nM.
With `O=C(O)CNCCn1cccc(Nc2nn(-c3ccc(OC(F)(F)F)cc3)c(=O)c3c2CCC3)c1=O` [Example 129, 2-[2-[2-Oxo-3-[[4-oxo-3-[4-(trifluoromethoxy)phenyl]-6,7-dihydro-5H-cyclopenta[d]pyridazin-1-yl]amino]-1-pyridyl]ethylamino]acetic acid], the IC50 is 79 nM.
Turning to `NCCn1cccc(Nc2nn(-c3ccc(OC(F)(F)F)cc3)c(=O)c3c2CCC3)c1=O` [Example 130, 1-[[1-(2-Aminoethyl)-2-oxo-3-pyridyl]amino]-3-[4-(trifluoromethoxy)phenyl]-6,7-dihydro-5H-cyclopenta[d]pyridazin-4-one], the concentration for half-maximal inhibition (IC50) turned out to be 62 nM.
In the case of `O=c1c(Nc2nn(-c3ccc(OC(F)(F)F)cc3)c(=O)c3c2CCC3)cccn1CC1CCCN1` (stereo not shown) [Example 131, 1-[[2-Oxo-1-(pyrrolidin-2-ylmethyl)-3-pyridyl]amino]-3-[4-(trifluoromethoxy)phenyl]-6,7-dihydro-5H-cyclopenta[d]pyridazin-4-one] it was 30 nM; in that of `CN1CCc2c(Nc3cccn(C)c3=O)nn(-c3ccc(OC(F)(F)F)cc3)c(=O)c2C1` [Example 132, 6-Methyl-1-[(1-methyl-2-oxo-3-pyridyl)amino]-3-[4-(trifluoromethoxy)phenyl]-7,8-dihydro-5H-pyrido[3,4-d]pyridazin-4-one], 87 nM.
`CN1CCc2c(c(Nc3cccn(C)c3=O)nn(-c3ccc(OC(F)(F)F)cc3)c2=O)C1` [Example 133, 6-Methyl-4-[(1-methyl-2-oxo-3-pyridyl)amino]-2-[4-(trifluoromethoxy)phenyl]-7,8-dihydro-5H-pyrido[3,4-d]pyridazin-1-one]: the IC50 amounted to 538 nM.
Take `Cn1cccc(Nc2nn(-c3ccc(OC(F)(F)F)cc3)c(=O)c3c2CCNC3)c1=O` [Example 134, 1-[(1-Methyl-2-oxo-3-pyridyl)amino]-3-[4-(trifluoromethoxy)phenyl]-5,6,7,8-tetrahydropyrido[3,4-d]pyridazin-4-one]: the IC50 stood at 521 nM.
In the case of `O=c1c(Nc2nn(-c3ccc(OC(F)(F)F)cc3)c(=O)c3c2CCC3)cccn1C[C@@H]1CNCCO1` [Example 135, 1-[[1-[[(2S)-Morpholin-2-yl]methyl]-2-oxo-3-pyridyl]amino]-3-[4-(trifluoromethoxy)phenyl]-6,7-dihydro-5H-cyclopenta[d]pyridazin-4-one] it was 85 nM; in that of `COCCOc1ccc2c(=O)n(-c3ccc(OC(F)(F)F)cc3)nc(Nc3cccn(C)c3=O)c2c1` [Example 136, 6-(2-Methoxyethoxy)-4-[(1-methyl-2-oxo-3-pyridyl)amino]-2-[4-(trifluoromethoxy)phenyl]phthalazin-1-one], 61 nM; in that of `COCCOc1ccc2c(Nc3cccn(C)c3=O)nn(-c3ccc(OC(F)(F)F)cc3)c(=O)c2c1` [Example 137, 7-(2-Methoxyethoxy)-4-[(1-methyl-2-oxo-3-pyridyl)amino]-2-[4-(trifluoromethoxy)phenyl]phthalazin-1-one], 136 nM.
The result for `COCCOc1cccc2c(=O)n(-c3ccc(OC(F)(F)F)cc3)nc(Nc3cccn(C)c3=O)c12` [Example 138, 5-(2-Methoxyethoxy)-4-[(1-methyl-2-oxo-3-pyridyl)amino]-2-[4-(trifluoromethoxy)phenyl]phthalazin-1-one] reads 110 nM.
In the case of `Cn1cccc(Nc2nn(-c3ccc(OC(F)(F)F)cc3)c(=O)c3cc(C(N)=O)ccc23)c1=O` [Example 139, 1-[(1-Methyl-2-oxo-3-pyridyl)amino]-4-oxo-3-[4-(trifluoromethoxy)phenyl]phthalazine-6-carboxamide] it was 62 nM; in that of `CC(O)c1ccc2c(Nc3cccn(C)c3=O)nn(-c3ccc(OC(F)(F)F)cc3)c(=O)c2c1` (stereo not shown) [Example 140, 7-(1-Hydroxyethyl)-4-[(1-methyl-2-oxo-3-pyridyl)amino]-2-[4-(trifluoromethoxy)phenyl]phthalazin-1-one], 32 nM.
For `Cn1cccc(Nc2nn(-c3ccc(OC(F)(F)F)cc3)c(=O)c3cc(CO)ccc23)c1=O` [Example 141, 7-(hydroxymethyl)-4-[(1-methyl-2-oxo-3-pyridyl)amino]-2-[4-(trifluoromethoxy)phenyl]phthalazin-1-one], the IC50 worked out at 12 nM.
Take `Cn1cccc(Nc2nn(-c3ccc(OC(F)(F)F)cc3)c(=O)c3cc(N)ccc23)c1=O` [Example 142, 7-Amino-4-[(1-methyl-2-oxo-3-pyridyl)amino]-2-[4-(trifluoromethoxy)phenyl]phthalazin-1-one]: the IC50 was 46 nM.
On to `Cn1cccc(Nc2nn(-c3ccc(OC(F)(F)F)cc3)c(=O)c3cc(CN)ccc23)c1=O` [Example 143, 7-(Aminomethyl)-4-[(1-methyl-2-oxo-3-pyridyl)amino]-2-[4-(trifluoromethoxy)phenyl]phthalazin-1-one], for which the IC50 came to 271 nM.
In the case of `CN(C)Cc1ccc2c(Nc3cccn(C)c3=O)nn(-c3ccc(OC(F)(F)F)cc3)c(=O)c2c1` [Example 144, 7-[(Dimethylamino)methyl]-4-[(1-methyl-2-oxo-3-pyridyl)amino]-2-[4-(trifluoromethoxy)phenyl]phthalazin-1-one] it was 625 nM; in that of `CC(O)CN1CCc2c(Nc3cccn(C)c3=O)nn(-c3ccc(OC(F)(F)F)cc3)c(=O)c2C1` (stereo not shown) [Example 145, 6-(2-Hydroxypropyl)-1-[(1-methyl-2-oxo-3-pyridyl)amino]-3-[4-(trifluoromethoxy)phenyl]-7,8-dihydro-5H-pyrido[3,4-d]pyridazin-4-one], 129 nM.
For `Cn1cccc(Nc2nn(-c3ccc(OC(F)(F)F)cc3)c(=O)c3c2CCN(CC(C)(C)O)C3)c1=O` [Example 146, 6-(2-Hydroxy-2-methyl-propyl)-1-[(1-methyl-2-oxo-3-pyridyl)amino]-3-[4-(trifluoromethoxy)phenyl]-7,8-dihydro-5H-pyrido[3,4-d]pyridazin-4-one], the IC50 came to 167 nM.
On to `Cn1cccc(Nc2nn(-c3ccc(OC(F)(F)F)cc3)c(=O)c3c2CCN(CCO)C3)c1=O` [Example 147, 6-(2-Hydroxyethyl)-1-[(1-methyl-2-oxo-3-pyridyl)amino]-3-[4-(trifluoromethoxy)phenyl]-7,8-dihydro-5H-pyrido[3,4-d]pyridazin-4-one], for which the half-inhibitory concentration (IC50) was determined as 76 nM.
With `CC(=O)N1CCc2c(Nc3cccn(C)c3=O)nn(-c3ccc(OC(F)(F)F)cc3)c(=O)c2C1` [Example 148, 6-Acetyl-1-[(1-methyl-2-oxo-3-pyridyl)amino]-3-[4-(trifluoromethoxy)phenyl]-7,8-dihydro-5H-pyrido[3,4-d]pyridazin-4-one], the 50% inhibitory concentration (IC50) was 19 nM.
Regarding `CC(=O)N1CCc2c(c(Nc3cccn(C)c3=O)nn(-c3ccc(OC(F)(F)F)cc3)c2=O)C1` [Example 149, 6-Acetyl-4-[(1-methyl-2-oxo-3-pyridyl)amino]-2-[4-(trifluoromethoxy)phenyl]-7,8-dihydro-5H-pyrido[3,4-d]pyridazin-1-one], the half-maximal inhibitory concentration (IC50) is 71 nM.
Consider `CC(=O)N1CCc2c(Nc3cncn(C)c3=O)nn(-c3ccc(OC(F)(F)F)cc3)c(=O)c2C1` [Example 150, 6-Acetyl-1-[(1-methyl-6-oxo-pyrimidin-5-yl)amino]-3-[4-(trifluoromethoxy)phenyl]-7,8-dihydro-5H-pyrido[3,4-d]pyridazin-4-one], for which the IC50 amounted to 104 nM.
As to `CC(=O)N1CCc2c(c(Nc3cncn(C)c3=O)nn(-c3ccc(OC(F)(F)F)cc3)c2=O)C1` [Example 151, 6-Acetyl-4-[(1-methyl-6-oxo-pyrimidin-5-yl)amino]-2-[4-(trifluoromethoxy)phenyl]-7,8-dihydro-5H-pyrido[3,4-d]pyridazin-1-one], the IC50 was 372 nM.
The result for `COC(=O)N1CCc2c(c(Nc3cccn(C)c3=O)nn(-c3ccc(OC(F)(F)F)cc3)c2=O)C1` [Example 152, Methyl 4-[(1-methyl-2-oxo-3-pyridyl)amino]-1-oxo-2-[4-(trifluoromethoxy)phenyl]-7,8-dihydro-5H-pyrido[3,4-d]pyridazine-6-carboxylate] reads 32 nM; that for `COC(=O)N1CCc2c(Nc3cccn(C)c3=O)nn(-c3ccc(OC(F)(F)F)cc3)c(=O)c2C1` [Example 153, Methyl 1-[(1-methyl-2-oxo-3-pyridyl)amino]-4-oxo-3-[4-(trifluoromethoxy)phenyl]-7,8-dihydro-5H-pyrido[3,4-d]pyridazine-6-carboxylate], 61 nM.
